Laboratory results as given in US20180015100A1, “COMBINATION PRODUCTS FOR THE TREATMENT OF BACTERIAL INFECTIONS AND METHODS OF PRODUCING OR DOSING OF SAME” (priority 2016, published 2018).
Like-named read-outs stand apart in the source and are kept apart here. Marks after values point to notes of the source that are not given here.

Columns and labels:
[1] = tested on: COCC1=C(C(=O)O)N2C(=O)[C@@H](NC(=O)/C(=N\OC)c3csc(N)n3)[C@H]2SC1; test: purified protein, by the assay type; conditions: other: CTX-M-15-mediated hydrolysis; pH 7.0
[2] = tested on: C=CC1=C(C(=O)O)N2C(=O)[C@@H](NC(=O)/C(=N\OCC(=O)O)c3csc(N)n3)[C@H]2SC1; test: purified protein, by the assay type; conditions: other: CTX-M-15-mediated hydrolysis; pH 7.0
[3] = cited from earlier work; for bioavailability / fCmax: po
[4] = cited from earlier work
[5] = tested on: Enterobacter cloacae isolates; test: MIC of cephalosporins alone or with clavulanate/tazobactam; type: cell-based; conditions: clavulanate 2:1, tazobactam 4 μg/mL
[6] = tested on: Escherichia coli isolates; test: as above; type: cell-based; conditions: clavulanate 2:1, tazobactam 4 μg/mL
[7] = tested on: Citrobacter freundii isolates; test: as above; type: cell-based; conditions: clavulanate 2:1, tazobactam 4 μg/mL
CTX-M-15 = CTX-M-15 (Escherichia coli, UniProt Q9EXV5); test: Competition assay with nitrocefin (IC50); type: biochemical
[8] = tested on: Klebsiella oxytoca isolates; test: MIC of cephalosporins alone or with clavulanate/tazobactam; type: cell-based; conditions: clavulanate 2:1, tazobactam 4 μg/mL
[9] = tested on: Enterobacter aerogenes isolates; test: as above; type: cell-based; conditions: Klebsiella aerogenes, clavulanate 2:1, tazobactam 4 μg/mL
[10] = tested on: Klebsiella pneumoniae isolates; test: as above; type: cell-based; conditions: clavulanate 2:1, tazobactam 4 μg/mL
CTX-M-15 Strain = test: MIC of cephalosporins without and with CLV (Table 16); type: cell-based; conditions: for MIC: read-out: MIC CTX-M-15 Strain − CLV; for MIC CTX-M-15 Strain + CLV: with CLV
AECO001 = test: MIC of cephalosporins (Table 16); type: cell-based
[11] = tested on: 13 Enterobacteriaceae isolates; type: cell-based; conditions: with clavulanate 2:1
[12] = tested on: 385 Escherichia coli and 126 Klebsiella pneumoniae isolates; test: MIC, MIC50 and MIC90 by reference broth microdilution against 511 UTI/bloodstream isolates (USA and Europe 2014-2015); type: cell-based; conditions: 511 isolates
[13] = tested on: ESBL-producing Enterobacteriaceae isolates (panel of nineteen); test: MIC of cephalosporins alone or with clavulanate/tazobactam, whole panel; type: cell-based; conditions: cephalosporin alone; 19 isolates

Chain of CTX-M-15 (Q9EXV5 entry or part of it): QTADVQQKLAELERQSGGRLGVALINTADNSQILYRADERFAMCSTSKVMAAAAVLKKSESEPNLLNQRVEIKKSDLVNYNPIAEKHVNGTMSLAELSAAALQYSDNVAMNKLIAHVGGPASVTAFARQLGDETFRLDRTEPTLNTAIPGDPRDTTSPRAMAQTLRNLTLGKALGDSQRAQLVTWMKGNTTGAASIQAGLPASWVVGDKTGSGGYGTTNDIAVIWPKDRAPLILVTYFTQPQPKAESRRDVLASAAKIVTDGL

| Molecule | Mean Cmax ([3]; in vivo, 200 mg) [ng/mL] | Mean fCmax ([3]; in vivo, 200 mg) [µg/mL] | bioavailability ([3]; in vivo) | MIC ([5]; AECL1065 (CTX-M-15)) [µg/mL] | MIC ([5]; AECL1067 (CTX-M-3)) [µg/mL] | MIC ([6]; AECO001 (no ESBL)) [µg/mL] | MIC ([6]; AECO1078 (CTX-M-15)) [µg/mL] | MIC ([6]; AECO1157 (CTX-M-15, TEM-OSBL)) [µg/mL] | MIC ([6]; AECO1159 (CTX-M-15)) [µg/mL] | MIC ([6]; AECO1169 (CTX-M-1, TEM-OSBL)) [µg/mL] | MIC ([6]; AECO1172 (CTX-M-14)) [µg/mL] | MIC ([7]; ACFR1034 (CTX-M-15, TEM-OSBL)) [µg/mL] | MIC ([7]; ACFR1035 (CTX-M-3, TEM-OSBL)) [µg/mL] | IC50 (CTX-M-15) [µM] | MIC ([8]; AKOX1005 (SHV-2, TEM-1, DHA-1)) [µg/mL] | MIC ([8]; AKOX1009 (CTX-M-15)) [µg/mL] | MIC ([9]; AEAE1027 (CTX-M-14)) [µg/mL] | MIC ([9]; AEAE1029 (CTX-M-15)) [µg/mL] | MIC ([10]; AKPN1159 (SHV-12)) [µg/mL] | MIC ([10]; AKPN1161 (SHV-7)) [µg/mL] | other results |
| --- | --- | --- | --- | --- | --- | --- | --- | --- | --- | --- | --- | --- | --- | --- | --- | --- | --- | --- | --- | --- | --- |
| CTX-M-15 (Escherichia coli) | – | – | – | – | – | – | – | – | – | – | – | – | – | – | – | – | – | – | – | – | Km [1]: 13 (10-16) μM; kcat [1]: 50 s⁻¹; kcat/Km [1]: 3.8e+06 M⁻¹ s⁻¹; Km [2]: 14 (11-18) μM; kcat [2]: 2 s⁻¹; kcat/Km [2]: 140000 M⁻¹ s⁻¹ |
| C=CC1=C(C(=O)O)N2C(=O)[C@@H](NC(=O)/C(=N\OCC(=O)O)c3csc(N)n3)[C@H]2SC1 [Cefixime, cefixime] | 2000 | 0.7 | 40-90% | > 64 | > 64 | 1 | > 64 | > 64 | > 64 | 16 | 16 | > 64 | > 64 | 20 | 16 | > 64 | 8 | > 64 | 32 | 32 | Mean unbound plasma concentration following one elimination half-life ([3]; for highest plasma concentration from previous row): 0.65 (400 mg) μg/mL; Mean Cmax ([3]; in vivo, 400 mg): 3700 ng/mL; Mean fCmax ([3]; in vivo, 400 mg): 1.3 µg/mL; fCmax ([3]; in vivo): 2.7 µg/mL; Elimination half-life ([3]; plasma): 3-4^b h; Protein binding (% bound) ([4]; serum): 65 (serum) % bound; MIC ([10]; AKPN1162 (CTX-M-15, SHV-12)): > 64 µg/mL; MIC ([10]; AKPN1166 (CTX-M-14, SHV-12)): > 64 µg/mL; MIC ([10]; AKPN1167 (SHV-2)): 8 µg/mL; MIC (CTX-M-15 Strain): > 64 µg/mL; MIC CTX-M-15 Strain + CLV (CTX-M-15 Strain): 2 µg/mL; MIC (AECO001): 1 µg/mL |
| CO/N=C(\C(=O)N[C@@H]1C(=O)N2C(C(=O)O)=C(COC(C)=O)CS[C@H]12)c1csc(N)n1 [Cefotaxime, cefotaxime] | – | – | – | – | – | – | – | – | – | – | – | – | – | 31 | – | – | – | – | – | – | MIC (AECO001): 0.125 µg/mL |
| CO/N=C(\C(=O)N[C@@H]1C(=O)N2C(C(=O)O)=C(/C=C\c3scnc3C)CS[C@H]12)c1csc(N)n1 [Cefditoren, cefditoren] | 1800 | 0.22 | 14% | – | – | – | – | – | – | – | – | – | – | – | – | – | – | – | – | – | Mean unbound plasma concentration following one elimination half-life ([3]; in vivo): 0.11 µg/mL; peak free drug concentrations ([3]; in vivo): ≤ 0.3 µg/mL; Protein binding (% bound) ([4]; plasma): 88 (plasma) % bound; MICs range against ESBL+ isolates (Table 3) [11]: 0.12 to 2 µg/mL |
| CO/N=C(\C(=O)N[C@@H]1C(=O)N2C(C(=O)[O-])=C(C[N+]3(C)CCCC3)CS[C@H]12)c1csc(N)n1 [Cefepime, cefepime] | – | – | – | > 32 | > 32 | ≤ 0.031 | > 32 | 32 | > 32 | > 32 | > 32 | > 32 | > 32 | – | 0.25 | 32 | 8 | > 32 | 2 | 1 | MIC50 [12]: > 16 µg/mL; EUCAST % I ([12]; EUCAST 2016 criteria): 10.0%; MIC90 ([12]; read-out: MIC90): > 16 µg/mL; ESBL-producing isolates with MIC<8 μg/mL [13]: 4 of 19; MIC ([6]; AECO1147 (CTX-M-15)): 4 µg/mL; MIC ([10]; AKPN1162 (CTX-M-15, SHV-12)): > 32 µg/mL; MIC ([10]; AKPN1166 (CTX-M-14, SHV-12)): 4 µg/mL; MIC ([10]; AKPN1167 (SHV-2)): 8 µg/mL |
| COCC1=C(C(=O)O)N2C(=O)[C@@H](NC(=O)/C(=N\OC)c3csc(N)n3)[C@H]2SC1 [Cefpodoxime, cefpodoxime] | 2300 | 1.8 | 40-90% | > 64 | > 64 | 0.5 | > 64 | > 64 | > 64 | > 64 | > 64 | > 64 | > 64 | 24 | 32 | > 64 | > 64 | > 64 | 64 | 16 | Mean Cmax ([3]; in vivo, 100 mg): 1400 ng/mL; Mean fCmax ([3]; in vivo, 100 mg): 1.1 µg/mL; Mean Cmax ([3]; in vivo, 400 mg): 3900 ng/mL; half-life ([3]; in vivo, 800 mg): 2.9 h; fCmax ([3]; in vivo, 800 mg): approximately 5.4 μg/mL; Elimination half-life ([3]; in vivo): 2.1 to 2.8 h; Mean unbound plasma concentration following one elimination half-life ([3]; in vivo): 1.55 (400 mg) μg/mL; Protein binding (% bound) ([4]; plasma): 21-29 (plasma) % bound; Protein binding (% bound) ([4]; serum): 22-33 (serum); % bound; MIC ([6]; AECO1147 (CTX-M-15)): > 64 µg/mL; MIC ([10]; AKPN1162 (CTX-M-15, SHV-12)): > 64 µg/mL; MIC ([10]; AKPN1166 (CTX-M-14, SHV-12)): > 64 µg/mL; MIC ([10]; AKPN1167 (SHV-2)): > 64 µg/mL; MIC (CTX-M-15 Strain): > 64 µg/mL; MIC CTX-M-15 Strain + CLV (CTX-M-15 Strain): 4 µg/mL; MIC (AECO001): 0.5 µg/mL |
